Reference: patent US4029801A, “Pharmaceutical compositions and methods of treating hypertension” (priority 1970, dated 1977)
Where two headings read alike, the source gives them in different places.

What was measured:
α-adrenoceptor = test: α-Adrenoceptor antagonism on the guinea pig aortic strip; settings: for α-blockade pA2: Table 4; for α-adrenoceptor antagonism: result in words
From the text: Carried out on the guinea pig aortic strip [Furchgott and Bhadrakom (1953) J. Pharmac. exp. Ther. 108, 129-143] by the method of Alps et al [Br. J. Pharmac. 1972 44, 52-62].

[1] = tested on: blood pressure and heart rate; test: Method 1 (rat): hypotensive activity in anaesthetised rats, i.v.; settings: for minimal effective dose: Rattus norvegicus, iv
Method: Rats were anaesthetised with pentobarbitone sodium (60 mg/kg) and the jugular vein, trachea and carotid artery were cannulated. […] A decrease in heart rate of more than 30% from control values was considered to be significant bradycardia.

histamine = molecular target: T1, histamine (Cavia porcellus, UniProt P31389); test: Antihistamine activity by the method of Alps et al.; settings: for antihistamine activity: result in words
T1 construct: from tissue

blood pressure = test: Tests for action on the cardiovascular system: hypotensive activity (activity in method 1, rats or cats, or method 2), reported in words; assay type: in vivo, rat, cat; settings: standard test procedure, result in words
Method: Tests for action on the cardiovascular system were conducted according to one of the following procedures:
Cats were anaesthetised with pentobarbitone sodium (30 mg/kg) and the cephalic vein, femoral and carotid arteries and trachea were cannulated. The carotid cannula was introduced into the left ventricle and the femoral cannula into the aorta. Blood pressure and heart rate were recorded from the aortic cannula and left ventricular pressure from the carotid cannula. The test compunds were administered intravenously (0.1-25.6 mg/kg).
Method 2 (hypertensive rats)
Male or female rats are rendered hypertensive by applying a figure of 8 ligature around one kidney and contralateral nephrectomy. Blood pressure stabilises at a hypertensive level after 6 weeks. Systolic pressure is measured indirectly using a Decker Caudal Plethysmograph A control group of rats is run with each group treated with drug. Each group usually consists of six rats. Drugs are usually administered by the IP or oral routes. Pressures are read prior to drug administration and at two and 24 hours thereafter.

Depressant activity = assay type: in vivo; settings: result in words
[2] = 0.25 h, read-out: Hypotensive Activity
[3] = Table 4, read-out: Antihistamine pA2 (converted)

T1 sequence (P31389 whole entry): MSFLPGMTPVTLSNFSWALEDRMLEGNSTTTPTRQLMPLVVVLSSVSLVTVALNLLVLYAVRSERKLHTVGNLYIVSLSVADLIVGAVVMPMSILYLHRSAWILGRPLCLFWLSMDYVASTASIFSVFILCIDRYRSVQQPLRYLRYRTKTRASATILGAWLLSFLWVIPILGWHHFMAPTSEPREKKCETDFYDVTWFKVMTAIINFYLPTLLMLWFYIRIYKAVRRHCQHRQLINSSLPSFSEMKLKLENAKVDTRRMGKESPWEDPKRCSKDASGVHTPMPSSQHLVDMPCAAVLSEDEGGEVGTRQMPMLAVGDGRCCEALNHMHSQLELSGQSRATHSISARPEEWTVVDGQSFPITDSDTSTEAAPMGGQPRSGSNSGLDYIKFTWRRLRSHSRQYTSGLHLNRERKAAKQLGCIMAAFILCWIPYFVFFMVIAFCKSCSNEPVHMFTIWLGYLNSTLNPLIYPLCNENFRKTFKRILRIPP

SMILES	α-blockade pA2 (α-adrenoceptor)	minimal effective dose [1, 2] [mg/kg]	antihistamine activity (histamine)	hypotensive activity (blood pressure)	further results
Cc1ccc(C(=O)CCCN2CCC(NC(=O)c3ccccc3)CC2)c(C)c1 [Example 45, 4-Benzamido-1-[4-(2,4-dimethylphenyl)-4-oxo-butyl]piperidine]	7.2	1.6 to 3.2	antihistamine	hypotensive activity	α-adrenoceptor antagonism (α-adrenoceptor): α-adrenoceptor antagonist activity; Kb (histamine; [3]): 10 nM
Cc1ccc(C)c(C(=O)CCCN2CCC(NC(=O)c3ccccc3)CC2)c1 [Example 44, 4-Benzamido-1-[4-(2,5-dimethylphenyl)-4-oxobutyl]piperidine]	7.5	1.6 to 3.2	antihistamine	hypotensive activity	α-adrenoceptor antagonism (α-adrenoceptor): α-adrenoceptor antagonist activities; Kb (histamine; [3]): 20 nM
NC1CCN(CCCC(=O)c2ccccc2)CC1 [Example 72, 4-Amino-1-(4-phenyl-4-oxobutyl)piperidine]	6.9	–	–	–	–
O=C(NC1CCN(CCCCc2ccc3c(c2)CCCC3)CC1)c1ccccc1 [Example 81, 1-[4-(1',2',3',4'-Tetrahydro-6-naphthyl)butyl]-4-benzamidopiperidine]	6.6	1.6 to 3.2	–	hypotensive activity	–
O=C(CCN1CCC(NC(=O)c2ccccc2)CC1)c1ccccc1 [Example 69, 4-Benzamido-1-(3-phenyl-3-oxopropyl)piperidine]	6.6	1.6 to 3.2	–	marked hypotensive activity	–
O=C(NC1CCN(CCCC2=CCc3ccccc32)CC1)c1ccccc1 [Example 15, 1-[3-(3-Indenyl)propyl]-4-benzamidopiperidine]	7.4	6.4 to 12.8	antihistamine activities	hypotensive	–
O=C(NC1CCN(CCc2c[nH]cn2)CC1)c1ccccc1 [Example 96, 1-[2-(4-Imidazolyl)ethyl]-4-benzamidopiperidine]	–	6.4 to 12.8	anti-histamine activity	hypotensive activity	–
O=C(NC1CCN(CCOc2ccccc2)CC1)c1ccccc1 [Example 52, 1-(2-Phenoxyethyl)-4-benzamidopiperidine]	5.9	6.4 to 12.8	–	marked hypotensive activity	–
O=C(NC1CCN(CCC(O)c2ccc3c(c2)OCCO3)CC1)c1ccccc1 (stereo not shown) [Example 92, 1-[3-(1,4-Benzodioxan-6-yl)-3-hydroxypropyl]-4-benzamido piperidine]	6.6	–	–	hypotensive activity	hypotensive activity ([1]; Table 3, cumulative iv dose, fall in diastolic blood pressure of 30 mm or more for at least 15 min): + ++
Cc1ccccc1NC(=O)CCN1CCC(NC(=O)c2ccccc2)CC1 [Example 16, 1-[N-(2-Methylphenyl)carbamoylethyl]-4-benzamidopiperidine]	–	–	–	–	depressant activity (Depressant activity): depressant activity
O=C(NC1CCN(CCCC(c2ccc(F)cc2)c2ccc(F)cc2)CC1)c1ccccc1 [Example 88, 4-(4-Benzamidopiperid-1-yl)-1,1-(di-p-fluorophenyl)butane]	5.9	1.6 to 3.2	–	hypotensive activity	–
CC(=O)Nc1ccc(O)c(CN2CCC(NC(=O)c3ccccc3)CC2)c1 [Example 18, 1-(5-Acetamido-2-hydroxybenzyl)-4-benzamidopiperidine]	–	< 30	–	–	depressant activity (Depressant activity): depressant activity
O=C(CCCN1CCC(NC(=O)c2ccccc2)CC1)c1ccc2c(c1)CCCC2 [Example 58, 1-[4-(1,2,3,4-Tetrahydro-6-naphthyl)-4-oxobutyl]-4-benzamidopiperidine]	6.9	1.6 to 3.2	–	hypotensive activity	–
O=C(NC1CCN(CCc2csc3ccccc23)CC1)c1ccccc1 [Example 100, 1-[2-(3-Benzo[b]thienyl)ethyl]-4-benzamidopiperidine]	–	< 30	antihistamine activity	hypotensive activity	–
O=C(CCCN1CCC(NC(=O)C2CCCCC2)CC1)c1ccccc1 [Example 75, 4-Cyclohexanecarboxamido-1-(4-phenyl-4-oxobutyl)piperidine]	6.9	6.4 to 12.8	–	marked hypotensive activity	–
CC(=O)Nc1ccc(OCC(O)CN2CCC(NC(=O)c3ccccc3)CC2)cc1 (stereo not shown) [Example 17, 1-[1-(4-Acetamidophenoxy)-2-hydroxyprop-3-yl]-4-benzamidopiperidine]	–	< 30	antihistamine activity	hypotensive activity	Kb (histamine; [3]): 100 nM
O=C(NC1CCN(CCCC(O)c2ccc3c(c2)CCCC3)CC1)c1ccccc1 (stereo not shown) [Example 79, 1-[4-(1',2',3',4'-Tetrahydro-6'-naphthyl)-4-hydroxybutyl]-4-benzamidopiperidine]	6.05	1.6 to 3.2	–	hypotensive activity	Kb (histamine; [3]): 100 nM
O=C(NC1CCN(CCc2ccncc2)CC1)c1ccccc1 [Example 93, 1-[2-(4-Pyridyl)ethyl]-4-benzamidopiperidine]	–	< 30	antihistamine activity	marked hypotensive activity	–
CC(C)(C)c1ccc(C(=O)CCCN2CCC(NC(=O)c3ccccc3)CC2)cc1 [Example 70, 4-Benzamido-1-[4-(4-tert-butyl-phenyl)-4-oxobutyl]piperidine]	6.6	0.8	–	hypotensive activity	–
O=C(CCCN1CCC(NC(=O)c2ccc(Cl)cc2)CC1)c1ccccc1 [Example 76, 4-(4-Chlorobenzamido)-1-(4-phenyl-4-oxobutyl)piperidine]	–	6.4 to 12.8	–	hypotensive activity	–
CC(Cc1ccccc1)N1CCC(NC(=O)c2ccccc2)CC1 (stereo not shown) [Example 78, 4-Benzamido-1-(1-phenylprop-2-yl)piperidine]	–	6.4 to 12.8	–	marked hypotensive activity	–
O=C(NC1CCN(CCC2=CCc3ccccc32)CC1)c1ccccc1 [Example 14, 1-[2-(3-Indenyl)ethyl]-4-benzamidopiperidine]	–	6.4 to 12.8	antihistamine activity	hypotensive activity	–
COc1ccccc1OCCN1CCC(NC(=O)c2ccccc2)CC1 [Example 68, 1-[2-(2-Methoxyphenoxy)ethyl]-4-benzamidopiperidine]	–	6.4 to 12.8	–	hypotensive activity	–
O=C(NC1CCN(CCCCc2ccccc2)CC1)c1ccccc1 [Example 46, 1-(4-Phenylbutyl)-4-benzamidopiperidine]	6.95	6.4 to 12.8	antihistamine activity	hypotensive activity	α-adrenoceptor antagonism (α-adrenoceptor): α-adrenoceptor antagonist; Kb (histamine; [3]): 39.8 nM
Cc1cc2c(cc1C(=O)CN1CCC(NC(=O)c3ccccc3)CC1)C(C)(C)CC(C)C2(C)C (stereo not shown) [Example 66, 7-(4-Benzamidopiperidinoacetyl)-1,1,3,4,4,6-hexamethyl-1,2,3,4-tetrahydronaphthalene]	–	6.4 to 12.8	–	hypotensive activity	–
O=C(NC1CCN(CCc2ccccc2)CC1)c1ccccc1 [Example 27, 1-Phenethyl-4-benzamidopiperidine]	–	1.6 to 3.2	–	hypotensive activity	pA2 (α-adrenoceptor antagonism) (α-adrenoceptor; guinea pig aortic strip): 5.7; minimal effective dose ([1]; read-out: Significant hypotension (dose; fall of 30 mm mercury or more in diastolic pressure)): 3.2 mg/kg; Fatal (dose) ([1]; anaesthetised rat, i.v., cumulative dose): 12.8 to 25.6 mg/kg; Kb (histamine; Table 2): 79.4 nM
O=C(NC1CCN(CCCC(O)c2ccccc2)CC1)c1ccccc1 (single isomer, unassigned; (+)) [Example 86, (+)-4-Benzamido-1-(4-phenyl-4-hydroxybutyl)piperidine]	–	1.6 to 3.2	–	hypotensive activity	–
O=C(NC1CCN(CCCOc2cccc3ccccc23)CC1)c1ccccc1 [Example 55, 1-[3-(1-Naphthyloxy)-propyl]-4-benzamidopiperidine]	–	1.6 to 3.2	–	marked hypotensive activity	–
O=C(CCCN1CCC(NC(=O)c2ccc3c(c2)OCO3)CC1)c1ccccc1 [Example 74, 4-Piperonylamido-1-(4-phenyl-4-oxobutyl)-piperidine]	6.4	6.4 to 12.8	–	hypotensive activity	–
O=C(NC1CCN(CCCCc2ccc(F)cc2)CC1)c1ccccc1 [Example 40, 1-[4-(p-Fluorophenyl)-n-butyl]-4-benzamidopiperidine]	6.4	1.6 to 3.2	anti-histamine activity	hypotensive activity	α-adrenoceptor antagonism (α-adrenoceptor): α-adrenoceptor antagonism; Kb (histamine; [3]): 31.6 nM
